Molecular target: T1, MEK (Homo sapiens, UniProt Q02750)
T1 construct: no tag is given for the 2D mutant
Test: in vitro MEK assay
Type: biochemical
Description: For evaluation of direct MEK activity, 10 μg GST-MEK, is incubated in the presence of absence of test compound with 5 μg of a glutathione S-transferase fusion protein containing p44MAP kinase with a lysine to alanine mutation at position 71 (GST-MAPK-KA). This mutation eliminates kinase activity of MAPK, so only kinase activity attributed to the added MEK remains. Incubations are 15 minutes at 30° C. in a final volume of 50 μL containing 50 mM Tris (pH 7.5), […], 2, μM EGTA, and 10 μM [γ-^32P]ATP. The reaction is stopped by addition of Laemmli SDS sample buffer. Phosphorylated GST-MAPK-KA is resolved by electrophoresis on a 10% polyacrylamide gel. Radioactivity incorporated into GST-MAPK-KA is determined by autoradiography, and subsequent scintillation counting of excised bands.
Alternatively, an artificially activated MEK containing serine to glutamate mutations at positions 218 and 222 (GST-MEK-2E) is used. When these two sites are phosphorylated, MEK activity is increased. Phosphorylation of these sites can be mimicked by mutation of the serine residues to glutamate. For this assay, 5 μg GST-MEK-2E is incubated with 5 μg GST-MAPK-KA for 15 minutes at 30° C. in the same reaction buffer as described above. Reactions are terminated and analyzed as above.

T1 sequence (Q02750 whole entry S218D/S222D, form open): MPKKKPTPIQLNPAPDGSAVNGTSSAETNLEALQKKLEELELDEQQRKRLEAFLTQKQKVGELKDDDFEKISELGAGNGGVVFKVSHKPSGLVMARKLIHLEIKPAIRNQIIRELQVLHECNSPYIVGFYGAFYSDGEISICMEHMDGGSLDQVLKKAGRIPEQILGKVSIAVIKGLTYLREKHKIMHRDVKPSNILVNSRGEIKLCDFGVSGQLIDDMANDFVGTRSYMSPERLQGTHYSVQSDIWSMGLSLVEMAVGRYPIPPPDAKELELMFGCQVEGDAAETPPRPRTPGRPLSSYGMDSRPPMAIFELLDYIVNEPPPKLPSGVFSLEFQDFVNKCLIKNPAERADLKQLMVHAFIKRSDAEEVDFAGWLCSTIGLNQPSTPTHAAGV

Row | in vitro MEK assay: % inhibition @ 1 μM | IC50 | SMILES
1 |  | 5.8 µM | Cc1cc(I)ccc1N1COC(=O)c2cc(C(=O)N(C)C)c(F)c(F)c21 [Example 5, 7,8-Difluoro-1-(4-iodo-2-methyl-phenyl)-4-oxo-1,4-dihydro-2H-benzo[d][1,3]oxazine-6-carboxylic acid dimethylamide]
2 | 34% |  | Cc1cc(I)ccc1N1COC(=O)c2cc(C(=O)N3CC[C@@H](O)C3)c(F)c(F)c21 [Example 8, 7,8-Difluoro-6-((R)-3-hydroxy-pyrrolidine-1-carbonyl)-1-(4-iodo-2-methyl-phenyl)-1,2-dihydro-3,1-benzoxazin-4-one]
3 | 0% |  | Cc1cc(I)ccc1N1COC(=O)c2cc(C(=O)N(C)C3CCN(C)CC3)c(F)c(F)c21 [Example 16]
4 | 78% |  | Cc1cc(I)ccc1N1COC(=O)c2cc(C(=O)N3CCN(C)CC3)c(F)c(F)c21 [Example 17]
5 | 43% |  | Cc1cc(I)ccc1N1COC(=O)c2cc(C(=O)NCCOCCO)c(F)c(F)c21 [Example 18, 7,8-Difluoro-1-(4-iodo-2-methyl-phenyl)-4-1,4-dihydro-2H-3,1-benzoxazine-6-carboxylic acid [2-(2-hydroxy-ethoxy)-ethyl]-amide]
6 | 41% |  | Cc1cc(I)ccc1N1COC(=O)c2cc(C(=O)N(C)CCO)c(F)c(F)c21 [Example 20, 7,8-Difluoro-1-(4-iodo-2-methyl-phenyl)-4-oxo-1,4-dihydro-2H-3,1-benzoxazine-6-carboxylic acid (2-hydroxy-ethyl)-methyl-amide]
7 | 31% |  | Cc1cc(I)ccc1N1COC(=O)c2cc(C(=O)Nc3nncs3)c(F)c(F)c21 [Example 21, 7,8-Difluoro-1-(4-iodo-2-methyl-phenyl)-oxo-1,4-dihydro-2H-3,1-benzoxazine-6-carboxylic acid 1,3,4-thiadiazol-2-ylamide]
8 | 46% |  | COCC(C)NC(=O)c1cc2c(c(F)c1F)N(c1ccc(I)cc1C)COC2=O (centres unmarked) [Example 22, 7,8-Difluoro-1-(4-iodo-2-methyl-phenyl)-4-oxo-1,4-dihydro-2H-3,1-benzoxazine-6-carboxylic acid (2-methoxy-1-methyl-ethyl)-amide]
9 | 20% |  | Cc1csc(NC(=O)c2cc3c(c(F)c2F)N(c2ccc(I)cc2C)COC3=O)n1 [Example 24, ,8-Difluoro-1-(4-iodo-2-methyl-phenyl)-4-oxo-1,4dihydro-2H-3,1-benzoxazine-6-carboxylic acid (4-methyl-thiazol-2-yl)-amide]
10 | 32% |  | Cc1cc(I)ccc1N1COC(=O)c2cc(C(=O)Nc3nccs3)c(F)c(F)c21 [Example 31, 7,8-Difluoro-1-(4-iodo-2-methyl-phenul)-4-oxo-1,4-dihydro-2H-3,1-benzoxazine-6-carboxylic acid thiazol-2-ylamide]

More lines, now with the values behind:

Row | SMILES | in vitro MEK assay: % inhibition @ 1 μM | IC50
11 | Cc1cc(I)ccc1N1COC(=O)c2cc(C(=O)NC3CCCC[C@@H]3O)c(F)c(F)c21 (stereo in doubt) [Example 60, 7,8-difluoro-1-(4-iodo-2-methyl-phenyl)-4-oxo-1,4-dihydro-2H-3,1-benzoxazine-6-carboxylic acid ((S)-2-hydroxy-cyclohexyl)-amide] | 30% | 
12 | COC[C@@H]1CCCN1C(=O)c1cc2c(c(F)c1F)N(c1ccc(I)cc1C)COC2=O [Example 9, 7,8-Difluoro-1-(4-iodo-2-methyl-phenyl)-6-((S)-2-methoxymethyl-pyrrolidine-1-carbonyl)-1,2-dihydro-3,1-benzoxazin-4-one] | 93% | 
13 | Cc1cc(I)ccc1N1COC(=O)c2cc(C(=O)NCCN3CCCCC3)c(F)c(F)c21 [Example 10, 7,8-Difluoro-1-(4-iodo-2-methyl-phenyl)-4-oxo-1,4-dihydro-2H-3,1-benzoxazine-6-carboxylic acid (2-piperidin-1-yl-ethyl)-amide] | 44% | 
14 | Cc1cc(I)ccc1N1COC(=O)c2cc(C(=O)NCCN3CCCC3)c(F)c(F)c21 [Example 11, 7,8-Difluoro-1-(4-iodo-2-methyl-phenyl)-4-oxo-1,4-dihydro-2H-3,1-benzoxazine-6-carboxylic acid (2-pyrrolidin-1-yl-ethyl)-amide] | 33% | 
15 | Cc1cc(I)ccc1N1COC(=O)c2cc(C(=O)NCCCN3CCCC3=O)c(F)c(F)c21 [Example 12, 7,8-Difluoro-1-(4-iodo-2-methyl-phenyl)-4-oxo-1,4-dihydro-2H-3,1-benzoxazine-6-carboxylic acid [3-(2-oxo-pyrrolidin-1-y)-propyl]-amide] | 21% | 
16 | Cc1cc(I)ccc1N1COC(=O)c2cc(C(=O)NCC3(O)CCCCC3)c(F)c(F)c21 [Example 13, 7,8-Difluoro-1-(4-iodo-2-methyl-phenyl)-4-oxo-1,4-dihydro-2H-3,1-benzoxazine-6-carboxylic acid (1-hydroxy-cyclohexylmethyl)-amide] | 23% | 
17 | Cc1cc(I)ccc1N1COC(=O)c2cc(C(=O)N3CCN(C=O)CC3)c(F)c(F)c21 [Example 15, 4-[7,8-Difluoro-1-(4-iodo-2-methyl-phenyl)-4-oxo-1,4-dihydro-2H-3,1-benzoxazine-6-carbonyl]-piperazine-1-carbaldehyde] | 13% | 
18 | Cc1cc(I)ccc1N1COC(=O)c2cc(C(=O)NCCC3CCCN3C)c(F)c(F)c21 (centres unmarked) [Example 19, 7,8-Difluoro-1-(4-iodo-2-methyl-phenyl)-4-oxo-1,4-dihydro-2H-3,1-benzoxazine-6-carboxylic acid [2-(1-methyl-pyrrolidin-2-yl)ethyl]-amide] | 28% | 
19 | Cc1cc(I)ccc1N1COC(=O)c2cc(C(=O)Nc3nc4c(C)cccc4s3)c(F)c(F)c21 [Example 23, 7,8-Difluoro-1-(4-iodo-2-methyl-phenyl)-4-oxo-1,4-dihydro-2H-3,1-benzoxazine-6-carboxylic acid (4-methyl-benzothiazol-2-yl)-amide] | 26% | 
20 | CCSc1nnc(NC(=O)c2cc3c(c(F)c2F)N(c2ccc(I)cc2C)COC3=O)s1 [Example 25, 7,8-Difluoro-1-(4-iodo-2-methyl-phenyl)-4-oxo-1,4-dihydro-2H-3,1-benzoxazine-6-carboxylic acid (5-ethylsulfanyl-1,3,4-thiadiazol-2-yl)-amide] | 5% | 
21 | CCc1nnc(NC(=O)c2cc3c(c(F)c2F)N(c2ccc(I)cc2C)COC3=O)s1 [Example 26, 7,8-Difluoro-1-(4-iodo-2-methyl-phenyl)-4-oxo-1,4-dihydro-2H-3,1-benzoxazine-6-carboxylic acid (5-ethyl-1,3,4-thiadiazol-2-yl)-amide] | 20% | 
22 | Cc1cc(I)ccc1N1COC(=O)c2cc(C(=O)Nc3nnc(S)s3)c(F)c(F)c21 [Example 27, 7,8-Difluoro-1-(4-iodo-2-methyl-phenyl)-4-oxo-1,4-dihydro-2H-3,1-benzoxazine-6-carboxylic acid (5-mercapto-1,3,4-thiadiazol-2-yl)-amide] | 27% | 
23 | CCOc1ccc2nc(NC(=O)c3cc4c(c(F)c3F)N(c3ccc(I)cc3C)COC4=O)sc2c1 [Example 28, 7,8-Difluoro-1-(4-iodo-2-methyl-phenyl)-4-oxo-1,4-dihydro-2H-3,1-benzoxazine-6-carboxylic acid (6-ethoxy-benzothiazol-2-yl)-amide] | 9% | 
24 | Cc1cc(I)ccc1N1COC(=O)c2cc(C(=O)Nc3nc4ccccc4s3)c(F)c(F)c21 [Example 29, 7,8-Difluoro-1-(4-iodo-2-methyl-phenyl)-4-oxo-1,4-dihydro-2H-3,1-benzoxazine-6-carboxylic acid benzothiazol-2-ylamide] | 21% | 
25 | Cc1cc(I)ccc1N1COC(=O)c2cc(C(=O)Nc3ccccc3CCO)c(F)c(F)c21 [Example 30, 7,8-Difluoro-1-(4-iodo-2-methyl-phenyl)-4-oxo-1,4-dihydro-2H-3,1-benzoxazine-6-carboxylic acid [2-(2-hydroxy-ethyl)-phenyl]-amide] | 55% | 
26 | Cc1cc(I)ccc1N1COC(=O)c2cc(C(=O)N3CCCCC3CCO)c(F)c(F)c21 (centres unmarked) [Example 32, 7,8-Difluoro-6-[2-(2-hydroxy-ethyl)-piperidine-1-carbonyl]-1-(4-iodo-2-methyl-phenyl)-1,2-dihydro-3,1-benzoxazin-4-one] | 76% | 
27 | Cc1cc(I)ccc1N1COC(=O)c2cc(C(=O)N3CCCCC3CO)c(F)c(F)c21 (centres unmarked) [Example 33, 7,8-Difluoro-6-(2-hydroxymethyl-piperidine-1-carbonyl)-1-(4-iodo-2-methyl-phenyl)-1,2-dihydro-3,1-benzoxazin-4-one] | 79% | 
28 | CCOC(=O)c1c[nH]nc1NC(=O)c1cc2c(c(F)c1F)N(c1ccc(I)cc1C)COC2=O [Example 34, 3-{[7,8-Difluoro-1-(4-iodo-2-methyl-phenyl)-4-oxo-1,4-dihydro-2H-3,1-benzoxazine-6-carbonyl]-amino}-1H-pyrazole-4-carboxylic acid ethyl ester] | 72% | 
29 | CSc1nc(NC(=O)c2cc3c(c(F)c2F)N(c2ccc(I)cc2C)COC3=O)n[nH]1 [Example 35, 7,8-Difluoro-1-(4-iodo-2-methyl-phenyl)-4-oxo-1,4-dihydro-2H-3,1-benzoxazine-6-carboxylic acid (5-methylsulfanyl-1H-1,2,4-triazol-3-yl)-amide] | 76% | 
